The target in data set [1] is T1, 5-HT2A (Rattus norvegicus, UniProt P14842). In words: 5-HT2 functional Assay: [Ca2+]i Mobilization (FLIPR). The format is cell-based. Set-up: endogenous in cells; host or cells: A7r5 rat vascular smooth muscle cells. The note with it: for EC50: [Ca2+]i mobilization, A7r5 rat vascular smooth muscle cells, FLIPR; for Emax: percentage of a maximum 5-HT-induced response, A7r5 cells. On the procedure: 5-HT2 functional Assay: [Ca^2+]i Mobilization
The receptor-mediated mobilization on intracellular calcium ([Ca^2+]i) was studied using the Fluorescence Imaging Plate Reader (FLIPR) instrument. Rat vascular smooth muscle cells, A7r5, were grown in a normal media of DMEM/10% FBS and 10 μg/mL gentamycin. Confluent cell monolayers were trypsinized, pelleted, and re-suspended in normal media. Cells were seeded in a 50 μL volume at a density of 20,000 cells/well in a black wall, 96-well tissue culture plate and grown for 2 days.
On the day of the experiment, one vial of FLIPR Calcium Assay Kit dye was re-suspended in 50 mL of a FLIPR buffer consisting of Hank's Balanced Salt Solution (HBSS), 20 mM HEPES, and 2.5 mM probenecid, pH 7.4. Cells were loaded with the calcium-sensitive dye by addition of an equal volume (50 μL) to each well of the 96-well plate and incubated with dye for 1 h at 23° C.
Typically, test compounds were stored at 25 μM in 50% DMSO/50% Ethanol solvent. Compounds were diluted 1:50 in 20% DMSO/20% Ethanol. For “hit” screening, compounds were further diluted 1:10 in FLIPR buffer and tested at a final concentration of 10 μM. For dose-response experiments, compounds were diluted 1:50 in FLIPR buffer and serially diluted 1:10 to give a 5- or 8-point dose-response curve.
The compound plate and cell plate were placed in the FLIPR instrument. At the beginning of an experimental run, a signal test was performed to check the basal fluorescence signal from the dye-loaded cells and the uniformity of the signal across the plate. The basal fluorescence was adjusted between 8000-12000 counts by modifying the exposure time, the camera F-stop, or the laser power. Instrument settings for a typical assay were the following: laser power 0.3-0.6 W, camera F-stop F/2, and exposure time 0.4 sec. An aliquot (25 μL) of the test compound was added to the existing 100 μL dye-loaded cells at a dispensing speed of 50 μL/sec. Fluorescence data were collected in real-time at 1.0 sec intervals for the first 60 secs and at 6.0 sec intervals for an additional 120 secs. Responses were measured as peak fluorescence intensity minus basal and where appropriate were expressed as a percentage of a maximum 5-HT-induced response. When the compounds were tested as antagonists against 10 μM 5-HT, they were incubated with the cells for 15 minutes prior to the addition of 5-HT.

For data set [2], the target named is T1, 5-HT2A. In words: 5-HT2 Receptor Binding Assay ([125I]DOI competition). The note with it: competition for [125I]DOI binding, rat or human cerebral cortex homogenates. On the procedure: 5-HT2 Receptor Binding Assay
Aliquots of post mortem rat or human cerebral cortex homogenates (400 μL) dispersed in 50 mM Tris HCl buffer (pH 7.4) are incubated with [^125I]DOI (80 pM final) in the absence or presence of methiothepin (10 μM final) to define total and non-specific binding, respectively, in a total volume of 0.5 mL. The assay mixture is incubated for 1 hour at 23° C. in polypropylene tubes and the assays terminated by rapid vacuum filtration over Whatman GF/B glass fiber filters previously soaked in 0.3% polyethyleneimine using ice-cold buffer. Test compounds (at different concentrations) are substituted for methiothepin. Filter-bound radioactivity is determined by scintillation spectrometry on a beta counter. The data are analyzed using a non-linear, iterative curve-fitting computer program [Trends Pharmacol. Sci., 16, 413 (1995)] to determine the compound affinity parameter. The concentration of the compound needed to inhibit the [^125I]DOI binding by 50% of the maximum is termed the IC50 or Ki value.

Counter-ions that a name gives are not always drawn.

T1 sequence (P14842 whole entry): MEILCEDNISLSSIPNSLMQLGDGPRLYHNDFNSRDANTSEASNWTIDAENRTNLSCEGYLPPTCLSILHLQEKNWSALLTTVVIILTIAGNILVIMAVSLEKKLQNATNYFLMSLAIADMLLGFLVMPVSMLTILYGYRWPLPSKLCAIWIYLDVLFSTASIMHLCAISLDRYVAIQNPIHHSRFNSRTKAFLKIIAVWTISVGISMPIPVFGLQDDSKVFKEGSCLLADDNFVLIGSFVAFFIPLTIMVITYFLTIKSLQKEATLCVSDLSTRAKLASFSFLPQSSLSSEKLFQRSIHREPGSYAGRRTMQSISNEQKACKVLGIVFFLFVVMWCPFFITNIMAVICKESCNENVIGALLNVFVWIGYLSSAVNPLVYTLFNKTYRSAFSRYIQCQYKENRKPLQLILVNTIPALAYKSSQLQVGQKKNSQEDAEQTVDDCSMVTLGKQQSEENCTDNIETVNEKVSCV

A word on the melting point: it is the temperature, or range, at which the solid turns liquid. What is called EC50 is the concentration at which the effect is half-maximal. A low value points to an effect from little substance. Usually Emax stands for the size of the effect at its maximum, as opposed to the concentration needed. For orientation: IC50 means the midpoint of a concentration-inhibition curve. A higher IC50 goes with weaker potency in that assay. `C[C@H](N)Cn1ncc2ccc3c(c21)NC(=O)CO3.Cl` [Example 2, 1-((S)-2-Aminopropyl)-1,9-dihydro-7H-[1,4]oxazino[2,3-g]indazol-8-one hydrochloride] had a melting point of 293 to 295 °C. On 5-HT2A [1], the midpoint of the response, the EC50, lay at 195 nM and the Emax stood at 60%. In addition, the IC50 at 5-HT2A [2] was determined as 3.5 nM.

At 5-HT2A [1], `C[C@H](N)Cn1ncc2ccc3c(c21)N(C)C(=O)CO3` [Example 3, 1-((S)-2-Aminopropyl)-1,9-dihydro-9-methyl-7H-[1,4]oxazino[2,3-g]indazol-8-one hydrochloride] had an EC50 of 550 nM and a maximum response (Emax) of 41%. The half-inhibitory concentration (IC50) at 5-HT2A [2] is 7.6 nM.

`C[C@H](N)Cn1ncc2ccc3c(c21)N(C)CCO3.O=C(O)/C=C/C(=O)O` [Example 1, (S)-2-(8,9-dihydro-9-methyl-7H-[1,4]oxazino[2,3-g]indazol-1-yl)-1-methylethylamine fumarate] returned a melting point of 185 to 187 °C. Also, on 5-HT2A [1], the EC50 is 20 nM and the Emax was found to be 82%. At 5-HT2A [2], this compound displayed a concentration for half-maximal inhibition (IC50) of 1 nM.

Source of the values: patent publication US7268131B2, “Substituted [1,4]oxazino[2,3-g]indazoles for the treatment of glaucoma” (Alcon, Inc., priority 2003, dated 2007).
